Reference: patent US11286249B2, “Pyrrolidine compounds” (Eli Lilly and Company, priority 2019, dated 2022)
Counter-ions that a name gives are not always drawn. Values belong to the compound of their own block, whether it stands above or below them.

Key:
[1] = tested on: plasma Lp(a); assay: In vivo Lp(a) inhibition in mice; details: for Lp(a) inhibition (% at 30 mpk): 30 mpk oral twice a day; for Lp(a) inhibition (% at 30 mpk) / ED50: day 3 at 8 h post morning oral dose; for Lp(a) inhibition (% at 30 mpk) / Lp(a) inhibition (%): mean ± SEM; for ED50: effective dose for 50% Lp(a) inhibition, oral, twice a day, ED50 ± standard error
Procedure: The ability of compounds to reduce steady-state Lp(a) level in vivo is assessed in a transgenic mouse model capable of producing humanized Lp(a) particles. In vivo effects of Lp(a) disruptor compounds are tested in 7 to 17-month-old female double transgenic mice expressing human apoB-100 and human apo(a) containing 17 Kringle repeats: B6.SJL-Tg(APOB)1102Sgy Tg(Alb-LPA)32Arte. Mice are housed with standard light cycle (12 hrs. light/12 hrs. dark), at RT 72±8° F. and relative humidity of 30˜70%, and with free access to water and normal chow diet (Harlan Tecklad diet 2014). Mice are randomized to treatment groups (n=5/group) 3 to 5 days before the study by body weight and baseline plasma Lp(a) concentration using BRAT (Block Randomized Allocation Tool) for the study. Mice are orally dosed (or subcutaneously where noted) with vehicle (oral dose vehicle: 10 mL/kg, 1% HEC, 0.25% Tween80, 0.01% Antifoam; subcutaneous dose vehicle: 5 mL/kg saline) or test compound at various dose levels twice a day (6:30 am and […]) for 5 days. Blood is collected in heparin-coated capillary tubes via tail bleed. Twenty μL of each blood sample is transferred to a DBS card (Whatman Cat #: WB12 9243) for drug exposure analysis. The remaining blood samples are centrifuged to separate plasma. Lp(a) concentration in plasma is measured using a sandwich ELISA as described for the in vitro Lp(a) assembly assay. The % inhibition for each dose group is determined with the mean the Lp(a) level of the vehicle control group set to 0% inhibition. […] ED50 (effective dose for 50% Lp(a) inhibition) calculations as determined by Threshold Minimum Effective Dose analysis.

[2] = biological target: human Apo(a) protein (Homo sapiens, UniProt P08519); assay: In vitro Apo(a) binding assay (competitive SPA radioligand binding); details: human Apo(a) with 17 Kringle repeats; geometric mean ± SEM (n)
Chain of human Apo(a) protein (P08519 20-2040 limits assumed): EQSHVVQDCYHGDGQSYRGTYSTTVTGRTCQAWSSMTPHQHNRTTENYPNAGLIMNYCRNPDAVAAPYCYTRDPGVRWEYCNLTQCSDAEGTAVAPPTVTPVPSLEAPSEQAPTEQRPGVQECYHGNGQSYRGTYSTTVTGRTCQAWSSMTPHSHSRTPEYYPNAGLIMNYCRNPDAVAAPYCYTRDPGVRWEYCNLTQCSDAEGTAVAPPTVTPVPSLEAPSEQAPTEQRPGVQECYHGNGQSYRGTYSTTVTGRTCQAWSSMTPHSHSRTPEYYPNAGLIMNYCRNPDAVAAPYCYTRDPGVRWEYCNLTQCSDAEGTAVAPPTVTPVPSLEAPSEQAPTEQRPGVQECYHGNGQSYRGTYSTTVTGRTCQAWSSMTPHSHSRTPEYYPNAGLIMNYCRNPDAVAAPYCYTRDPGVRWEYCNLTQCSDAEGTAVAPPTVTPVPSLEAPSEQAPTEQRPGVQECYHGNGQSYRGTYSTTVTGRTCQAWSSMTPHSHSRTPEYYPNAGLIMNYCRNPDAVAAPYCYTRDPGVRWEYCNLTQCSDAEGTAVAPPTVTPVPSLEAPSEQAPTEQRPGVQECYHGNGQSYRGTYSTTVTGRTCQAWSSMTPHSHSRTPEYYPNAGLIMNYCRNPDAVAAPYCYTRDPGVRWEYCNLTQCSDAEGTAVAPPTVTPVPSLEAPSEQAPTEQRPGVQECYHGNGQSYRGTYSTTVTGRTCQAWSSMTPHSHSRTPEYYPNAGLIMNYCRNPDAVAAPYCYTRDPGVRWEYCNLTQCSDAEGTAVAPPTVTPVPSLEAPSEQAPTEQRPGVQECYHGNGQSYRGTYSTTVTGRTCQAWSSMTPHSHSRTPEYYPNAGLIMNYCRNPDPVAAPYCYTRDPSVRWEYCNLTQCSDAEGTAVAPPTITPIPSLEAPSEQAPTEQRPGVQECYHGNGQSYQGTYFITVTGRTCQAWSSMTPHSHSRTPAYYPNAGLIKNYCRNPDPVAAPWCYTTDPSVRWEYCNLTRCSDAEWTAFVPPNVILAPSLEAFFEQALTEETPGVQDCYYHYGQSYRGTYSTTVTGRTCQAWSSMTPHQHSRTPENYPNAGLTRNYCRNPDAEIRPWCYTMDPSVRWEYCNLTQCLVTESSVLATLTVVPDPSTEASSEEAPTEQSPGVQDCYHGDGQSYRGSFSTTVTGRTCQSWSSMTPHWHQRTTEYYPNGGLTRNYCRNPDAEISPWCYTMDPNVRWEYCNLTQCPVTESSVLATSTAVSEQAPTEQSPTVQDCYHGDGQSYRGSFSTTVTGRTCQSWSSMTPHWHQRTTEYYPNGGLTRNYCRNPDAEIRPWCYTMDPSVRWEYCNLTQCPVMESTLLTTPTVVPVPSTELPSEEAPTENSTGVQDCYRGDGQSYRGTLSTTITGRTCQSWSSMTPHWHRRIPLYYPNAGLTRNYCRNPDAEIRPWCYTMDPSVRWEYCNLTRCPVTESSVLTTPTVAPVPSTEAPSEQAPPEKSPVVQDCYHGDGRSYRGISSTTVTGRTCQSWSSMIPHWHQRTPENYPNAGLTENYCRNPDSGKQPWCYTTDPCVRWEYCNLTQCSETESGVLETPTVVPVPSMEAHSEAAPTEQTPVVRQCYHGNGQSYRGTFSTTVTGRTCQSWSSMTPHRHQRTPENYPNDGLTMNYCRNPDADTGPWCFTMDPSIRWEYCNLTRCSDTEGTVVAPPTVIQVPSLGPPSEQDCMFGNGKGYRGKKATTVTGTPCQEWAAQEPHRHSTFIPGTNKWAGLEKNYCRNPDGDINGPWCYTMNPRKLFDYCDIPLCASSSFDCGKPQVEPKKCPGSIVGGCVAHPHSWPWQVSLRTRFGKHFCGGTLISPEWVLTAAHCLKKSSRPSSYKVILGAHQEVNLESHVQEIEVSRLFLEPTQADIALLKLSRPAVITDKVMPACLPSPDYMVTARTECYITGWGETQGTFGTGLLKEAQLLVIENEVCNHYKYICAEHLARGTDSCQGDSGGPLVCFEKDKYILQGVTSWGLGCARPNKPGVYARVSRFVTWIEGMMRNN
Procedure: The in vitro binding affinity of compounds to the intended target human Apo(a) protein is tested in a competitive binding assay. Human Apo(a) protein containing 17 Kringle repeats is affinity purified from conditioned media of transiently transfected HEK-293F cells. All reagents are prepared in assay buffer containing 50 mM Tris-HCl pH 7.4, 0.1% BSA. The binding assay is conducted by adding to each well of a clear-bottom plate […] of (1) test compound in dilution series (final concentration […]), (2) Apo(a) protein (6 ng/well), (3) re-suspended Wheat Germ Agglutinin Polyvinyltoluene SPA beads (20 mg/ml), and (4) the radioligand, tritium-labeled (2S)-3-[3-[2-oxo-3-[3-(tritritiomethoxy)phenyl]imidazolidin-1-yl]phenyl]-2-[(3R)-pyrrolidin-3-yl]propanoic acid; hydrochloride (final concentration 0.52 nM). Plates are incubated for 60 minutes at RT and counted on TRILUX LSC. […] Data are analyzed by fitting to a standard single site binding model and the IC50 for the Example test compound is determined. […] Inhibition of the assembly of the LDL particle with apo(a) through binding to the Apo(a) protein supports a reduction in Lp(a) levels.

[3] = biological target: assembly of Lp(a) from Apo(a) and the LDL particle (Homo sapiens, UniProt P08519); assay: In vitro Lp(a) assembly assay (cell-free, HepG2 and HEK293 conditioned media, sandwich ELISA); format: biochemical; details: inhibition of Lp(a) formation, 37° C. for 2 hrs; geometric mean ± SEM (n)
Chain of assembly of Lp(a) from Apo(a) and the LDL particle (P08519 20-2040 limits assumed): as above
Procedure: The ability of compounds to inhibit the formation of Lp(a) particles in vitro is assessed by a cell-free assembly assay. Conditioned media (DMEM supplemented with 10% FBS, 20 mM HEPES, and 1× penicillin/streptomycin) is collected from confluent wild-type HepG2 cells (a source of endogenously expressed ApoB) and from a HEK293 stable cell line expressing human Apo(a) protein containing 17 Kringle repeats (selected on 1 mg/ml geneticin) after 24 hours of culture at 37° C. and 5% CO2. An in vitro assembly assay is conducted by combining equal parts of HepG2 and HEK293 conditioned media with the test compounds added in dilution series (final concentration 0.01˜100 nM). The reaction is incubated at 37° C. for 2 hrs and then stopped with the addition of 6-aminocaproic acid (EACA) to a final concentration of 150 mM. Lp(a) is detected using a sandwich ELISA with an anti-Lp(a) capture antibody and an HRP-conjugated anti-ApoB detection antibody. The ELISA is developed using TMB, stopped using 1 N sulfuric acid, and the signal is read at 450 nm on a Molecular Devices plate reader.

[4] = 30 mg/kg oral twice a day, day 3 at 4 h post morning dose

SMILES: Cl.O=C(O)[C@H](Cc1ccccc1)[C@@H]1CCNC1 [Example 18, (2R)-3-Phenyl-2-[(3S)-pyrrolidin-3-yl]propanoic acid; hydrochloride]
Lp(a) inhibition (% at 30 mpk) [1]: 68 ± 1.82%
ED50 [1]: 7.6 ± 2.43 mg/kg

SMILES: O=C(O)[C@@H](Cc1cccc(CNCc2cccc(C[C@H](C(=O)O)[C@H]3CCNC3)c2)c1)[C@H]1CCNC1 [Example 3, (2S)-3-[3-[[[3-[(2S)-2-Carboxy-2-[(3R)-pyrrolidin-3-yl]ethyl]phenyl]methylamino]methyl]phenyl]-2-[(3R)-pyrrolidin-3-yl]propanoic acid; trihydrochloride]
IC50 [2]: 2130 ± 159 pM
IC50 [3]: 934 ± 306 pM

SMILES: Cl.O=C(O)[C@@H](Cc1ccccc1)[C@H]1CCNC1 [Example 17, (2S)-3-Phenyl-2-[(3R)-pyrrolidin-3-yl]propanoic acid; hydrochloride]
Lp(a) inhibition (% at 30 mpk) [1]: 60 ± 3.46%
ED50 [1]: 20.6 ± 1.79 mg/kg

SMILES: O=C(O)[C@@H](Cc1cccc(NS(=O)(=O)Nc2cccc(C[C@H](C(=O)O)[C@H]3CCNC3)c2)c1)[C@H]1CCNC1 [Example 16, (2S,2′S)-3,3′-[Sulfonylbis(azanediyl-3,1-phenylene)]bis{2-[(3R)-pyrrolidin-3-yl]propanoic acid}; dihydrochloride]
IC50 [3]: 563 ± 119 pM

SMILES: O=C(O)[C@@H](Cc1cccc(CNc2cccc(C[C@H](C(=O)O)[C@H]3CCNC3)c2)c1)[C@H]1CCNC1 [Example 13, (2S)-3-[3-[[3-[(2S)-2-Carboxy-2-[(3R)-pyrrolidin-3-yl]ethyl]anilino]methyl]phenyl]-2-[(3R)-pyrrolidin-3-yl]propanoicacid; trihydrochloride]
IC50 [3]: 2390 ± 610 pM

SMILES: O=C(O)[C@@H](Cc1cccc([S+]([O-])c2cccc(C[C@H](C(=O)O)[C@H]3CCNC3)c2)c1)[C@H]1CCNC1 [Example 11, (2S)-3-[3-[3-[(2S)-2-Carboxy-2-[(3R)-pyrrolidin-3-yl]ethyl]phenyl]sulfinylphenyl]-2-[(3R)-pyrrolidin-3-yl]propanoic acid; dihydrochloride]
IC50 [3]: 396 ± 241 pM

SMILES: CN1CC[C@H]([C@H](Cc2cccc(Nc3cccc(C[C@H](C(=O)O)[C@H]4CCN(C)C4)c3)c2)C(=O)O)C1 [Example 15, (2S)-3-[3-[3-[(2S)-2-carboxy-2-[(3R)-1-methylpyrrolidin-3-yl]ethyl]anilino]phenyl]-2-[(3R)-1-methylpyrrolidin-3-yl]propanoic acid; dihydrochloride]
IC50 [3]: 54600 ± 9150 pM

Further lines, with some results ahead:

IC50 [2]: < 314 pM
IC50 [3]: 108 ± 14.9 pM
SMILES: CC(Cc1cccc(CN(Cc2cccc(CC(C)(C(=O)O)[C@H]3CCNC3)c2)Cc2cccc(CC(C)(C(=O)O)[C@H]3CCNC3)c2)c1)(C(=O)O)[C@H]1CCNC1 (stereo partly drawn) [Example 6, 3-[3-[[bis[[3-[2-carboxy-2-[(3R)-pyrrolidin-3-yl]propyl]phenyl]methyl]amino]methyl]phenyl]-2-methyl-2-[(3R)-pyrrolidin-3-yl]propanoic acid; tetrahydrochloride]

IC50 [3]: 359 ± 29.2 pM
SMILES: O=C(O)[C@@H](Cc1cccc(COc2cccc(C[C@H](C(=O)O)[C@H]3CCNC3)c2)c1)[C@H]1CCNC1 [Example 9, (2S)-3-[3-[[3-[(2S)-2-Carboxy-2-[(3R)-pyrrolidin-3-yl]ethyl]phenoxy]methyl]phenyl]-2-[(3R)-pyrrolidin-3-yl]propanoic acid; dihydrochloride]
Lp(a) inhibition (%) [1, 4]: 56.5 ± 2.77%

IC50 [3]: 360 ± 119 pM
SMILES: O=C(O)[C@@H](Cc1cccc(Sc2cccc(C[C@H](C(=O)O)[C@H]3CCNC3)c2)c1)[C@H]1CCNC1 [Example 10, (2S)-3-[3-[3-[(2S)-2-Carboxy-2-[(3R)-pyrrolidin-3-yl]ethyl]phenyl]sulfanylphenyl]-2-[(3R)-pyrrolidin-3-yl]propanoic acid; dihydrochloride]
Lp(a) inhibition (%) [1, 4]: 43.6 ± 4.6%

IC50 [3]: 288 ± 190 pM
SMILES: O=C(O)[C@@H](Cc1cccc(OCCOc2cccc(C[C@H](C(=O)O)[C@H]3CCNC3)c2)c1)[C@H]1CCNC1 [Example 8, (2S)-3-[3-[2-[3-[(2S)-2-carboxy-2-[(3R)-pyrrolidin-3-yl]ethyl]phenoxy]ethoxy]phenyl]-2-[(3R)-pyrrolidin-3-yl]propanoic acid; dihydrochloride]

IC50 [2]: < 314 pM
IC50 [3]: 96.3 ± 23.3 pM
SMILES: O=C(O)[C@@H](Cc1cccc(CN(Cc2cccc(C[C@H](C(=O)O)[C@H]3CCNC3)c2)Cc2cccc(C[C@H](C(=O)O)[C@H]3CCNC3)c2)c1)[C@H]1CCNC1 [Example 1, (2S)-3-[3-[[Bis[[3-[(2S)-2-carboxy-2-[(3R)-pyrrolidin-3-yl]ethyl]phenyl]methyl]amino]methyl]phenyl]-2-[(3R)-pyrrolidin-3-yl]propanoic acid; tetrahydrochloride]
Lp(a) inhibition (% at 30 mpk) [1]: 91 ± 0.73%
ED50 [1]: 3.3 ± 0.53 mg/kg

IC50 [2]: < 314 pM
IC50 [3]: 348 ± 98.4 pM
SMILES: O=C(O)[C@@H](Cc1cccc(Nc2cccc(C[C@H](C(=O)O)[C@H]3CCNC3)c2)c1)[C@H]1CCNC1 [Example 14, (2S)-3-[3-[3-[(2S)-2-Carboxy-2-[(3R)-pyrrolidin-3-yl]ethyl]anilino]phenyl]-2-[(3R)-pyrrolidin-3-yl]propanoic acid; dihydrochloride]
Lp(a) inhibition (% at 30 mpk) [1]: 72 ± 2.23%
ED50 [1]: 14.6 ± 2.48 mg/kg

IC50 [3]: 170 ± 12.4 pM
SMILES: COc1cc(F)cc(CN(Cc2cccc(C[C@H](C(=O)O)[C@H]3CCNC3)c2)Cc2cccc(C[C@H](C(=O)O)[C@H]3CCNC3)c2)c1 [Example 5, (2S)-3-[3-[[[3-[(2S)-2-Carboxy-2-[(3R)-pyrrolidin-3-yl]ethyl]phenyl]methyl-[(3-fluoro-5-methoxy-phenyl)methyl]amino]methyl]phenyl]-2-[(3R)-pyrrolidin-3-yl]propanoic acid; trihydrochloride]
Lp(a) inhibition (%) ([1]; 3 mg/kg oral twice a day, day 3 at 4 h post morning dose): 43.8 ± 4.24%

IC50 [3]: 372 ± 46.4 pM
SMILES: O=C(O)[C@@H](Cc1cccc(Oc2cccc(C[C@H](C(=O)O)[C@H]3CCNC3)c2)c1)[C@H]1CCNC1 [Example 7, (2S)-3-[3-[3-[(2S)-2-carboxy-2-[(3R)-pyrrolidin-3-yl]ethyl]phenoxy]phenyl]-2-[(3R)-pyrrolidin-3-yl]propanoicacid; dihydrochloride]
Lp(a) inhibition (%) ([1]; 30 mg/kg subcutaneous dosing twice a day, day 3 at 4 h post morning dose): 44.6 ± 5.0%

IC50 [3]: 235 ± 50.9 pM
SMILES: O=C(O)[C@@H](Cc1cccc(S(=O)(=O)c2cccc(C[C@H](C(=O)O)[C@H]3CCNC3)c2)c1)[C@H]1CCNC1 [Example 12, (2S)-3-[3-[3-[(2S)-2-Carboxy-2-[(3R)-pyrrolidin-3-yl]ethyl]phenyl]sulfonylphenyl]-2-[(3R)-pyrrolidin-3-yl]propanoicacid; dihydrochloride]
Lp(a) inhibition (%) ([1]; 30 mg/kg oral twice a day, day 3, samples taken at 8 h post oral dosing): 50 ± 3.82^3%
